Source: patent publication US20090326013A1, “ISOMERS OF INOSITOL NIACINATE AND USES THEREOF” (priority 2007, published 2009)

Key:
[1] = Dissolution and hydrolysis in simulated gastric fluid (SGF) pH 1.1, release of niacin; assay type: physicochemical; settings: for time to complete dissolution in SGF: 25 mg in 25 mL SGF pH 1.1, 37°C, shaking; for release of niacin in SGF, allo-IHN compared with myo-IHN (FIG. 8): SGF pH 1.1, up to 150 hours
Procedure: The hydrolysis was performed in a 37±1° C. thermostatic water bath with a shaking rate at 97±2 rpm. At various time intervals, 100 μl aliquots were taken from the reaction mixture and diluted with 1.5 mL 80/20 acetonitrile/formic acid which were used to quench the hydrolysis reaction.
The pH of the SGF solution was 1.1 at 22° C. […] The reactor was placed in a thermostatic water bath at 37±1° C. with a shaking rate at 42±1 rpm. At various reaction times, 1 mL aliquots were taken from the reaction mixture and analyzed for niacin by HPLC.

[2] = Dissolution and hydrolysis in SIF with pancreatin at pH 6.7; assay type: in vitro ADME; settings: pH 6.7, up to 40 hours
Procedure: Simulated intestinal fluid (SIF) with pancreatin was prepared according to the USP standard procedure (USP29-NF24 S2) with a pH of 6.7 at 24° C.

Esterase = assay: Hydrolysis in pH 7.4 phosphate buffer (SIF) with esterase; assay type: in vitro ADME; settings: for degradation intermediates (penta-, tetra-, tri-, di-niacinates) observed: 16 hours
Procedure: Esterase is an enzyme found in animal liver which catalyzes the hydrolysis of esters. The esterase reaches maximum activity in pH 8.0 borate buffer at 25° C. Simulated intestinal fluid without pancreatin (SIF, 1 L) was prepared according to USP standard procedure (USP29-NF24 S2). The pH of the SIF solution was then adjusted to 7.4. Esterase (6.0 mg) was then added to 200 mL of the pH 7.4 phosphate buffer. […] After sonication for about 1 minute these suspensions were carefully transferred to the hydrolysis medium. As each suspension was added to the pH 7.4 phosphate buffer, a milky white precipitated immediately appeared. The reactors were kept in a thermostatic water bath at 37±1° C. with a shaking rate at 42±1 rpm. At various reaction times ˜2 mL aliquots were taken from the hydrolysis solutions and filtered through 0.45 μm filters in order to remove any undissolved materials. The samples for HPLC analysis were prepared by addition of 20 μL 6N HCl to 1 mL filtrate.

alcoholics = settings: three or more grams of niacin daily, five year study; cited from earlier work
[3] = tested on: women suffering from painful menstrual cramps; settings: 100 mg niacin twice daily, then every 2-3 hours during heavy cramps; cited from earlier work
[4] = Dissolution and hydrolysis in pH 7.4 phosphate buffer (SIF without pancreatin); assay type: physicochemical; settings: at about 25 hours
Procedure: A pH 7.4 phosphate buffer solution was also prepared from a SIF test solution in the absence of pancreatin. […] The release of niacin and the appearance of the degradation intermediates were monitored up to about 74 hours.

[5] = 250 mg 3 times daily combined with Mg-chlorophenoxyisobutyrate; cited from earlier work
[6] = pH 7.4 phosphate buffer with esterase

O=C(O[C@H]1[C@H](OC(=O)c2cccnc2)[C@@H](OC(=O)c2cccnc2)[C@H](OC(=O)c2cccnc2)[C@@H](OC(=O)c2cccnc2)[C@H]1OC(=O)c1cccnc1)c1cccnc1 [myo-IHN, myo-inositol hexaniacinate, reference compound]
time to complete dissolution in SGF [1]: 6 h | release of niacin in SGF, allo-IHN compared with myo-IHN (FIG. 8) [1]: about the same | release of niacin in SIF with pancreatin [2]: very little release of niacin | dissolution rate in the hydrolysis medium (Esterase; [6]): considerably slower than the hydrolysis rate | extent of hydrolysis (FIG. 9) (Esterase; [6]): remained as a solid and did not hydrolyze | degradation intermediates (penta-, tetra-, tri-, di-niacinates) observed (Esterase; [6]): absence of degradation intermediates

O=C(O)c1cccnc1 [niacin, pyridine-3-carboxylic acid]
alcoholics who benefit from supplementation (reduced recidivism and symptom reduction) (alcoholics): 30-60% | participants experiencing significant relief of menstrual cramps [3]: Ninety

O=C(O[C@H]1[C@H](OC(=O)c2cccnc2)[C@H](OC(=O)c2cccnc2)[C@@H](OC(=O)c2cccnc2)[C@@H](OC(=O)c2cccnc2)[C@H]1OC(=O)c1cccnc1)c1cccnc1 [allo-IHN, allo-inositol hexaniacinate]
niacin released in SGF ([1]; 20 mg in 200 mL SGF pH 1.1, 37°C, 118 hours): 38.5 µg/mL | onset of dissolution and hydrolysis in SGF ([1]; 20 mg in 200 ml SGF pH 1.1, 37°C): began immediately after addition to the reaction medium | niacin released in SGF, % of theoretical niacin content ([1]; SGF pH 1.1, 118 hours, theoretical 91 μg/mL): ~42% | release of niacin in SGF, allo-IHN compared with myo-IHN (FIG. 8) [1]: about the same | maximum concentration of niacin released ([4]; 20 mg in 200 mL pH 7.4 phosphate buffer): 30.34 µg/mL | maximum niacin released, % of theoretical release ([4]; pH 7.4 phosphate buffer): ~33% | concentration of niacin released (Esterase; 20 mg in 200 mL pH 7.4 phosphate buffer with esterase, 25 hours): 52.8 µg/mL | dissolution rate in the hydrolysis medium (Esterase; [6]): relatively fast | degradation intermediates (penta-, tetra-, tri-, di-niacinates) observed (Esterase; [6]): only the degradation intermediates of allo-IHN | niacin released, % of theoretical release (Esterase; pH 7.4 phosphate buffer with esterase, 25 hours): ~58% | area response of the niacin peak compared with the myo-IHN sample (Esterase; pH 7.4 phosphate buffer with esterase, within one hour): significantly larger | effect of the presence of esterase on release of niacin (Esterase; pH 7.4 phosphate buffer with vs without esterase): further enhances the release of niacin

O=C(O[C@H]1[C@H](OC(=O)c2cccnc2)[C@@H](OC(=O)c2cccnc2)[C@H](OC(=O)c2cccnc2)[C@@H](OC(=O)c2cccnc2)[C@H]1OC(=O)c1cccnc1)c1cccnc1 [IHN, inositol hexaniacinate]
influence on glucose tolerance [5]: no influence on glucose tolerance

O=C(O[C@H]1[C@H](OC(=O)c2cccnc2)[C@@H](OC(=O)c2cccnc2)[C@H](OC(=O)c2cccnc2)[C@@H](OC(=O)c2cccnc2)[C@@H]1OC(=O)c1cccnc1)c1cccnc1 [scyllo-IHN, Scyllo-inositol hexaniacinate]
time to complete dissolution in SGF [1]: > 53 h | dissolution and hydrolysis after increasing acidity of the SGF medium ([1]; 2 ml concentrated HCl injected after 53 hours): can be dissolved and the hydrolysis reaction commences to produce niacin
